# Measurements from ChEMBL document CHEMBL4834440, “2,2,2-trifluoro-1-(1,4,5,6-tetrahydropyridin-3-yl)ethanone derivative as efflux pump inhibitor in Mycobacterium tuberculosis” (Bioorg Med Chem Lett, 2021).
# Experiments:
# [1] = tested on: Mycobacterium tuberculosis H37Rv; test: Inhibition of Multidrug resistance efflux pump in Mycobacterium tuberculosis H37Rv assessed as reduction in rifampicin MIC at 1.56 ug/ml measured by ethidium bromide accumulation assay; conditions: dose 1.56 µg/ml
# [2] = tested on: Mycobacterium tuberculosis; test: Antimycobacterial activity against multidrug-resistant Mycobacterium tuberculosis FURG-2 assessed as inhibition of bacterial growth measured by Resazurin microtitre assay; assay type: functional
# [3] = tested on: Mycobacterium tuberculosis H37Rv; test: Inhibition of Multidrug resistance efflux pump in Mycobacterium tuberculosis H37Rv assessed as relative final fluorescence at 6.26 ug/ml measured by ethidium bromide accumulation assay; conditions: dose 6.26 µg/ml
# [4] = tested on: Mycobacterium tuberculosis; test: Inhibition of Multidrug resistance efflux pump in Mycobacterium tuberculosis FURG-2 assessed as relative final fluorescence at 3.12 ug/ml measured by ethidium bromide accumulation assay; conditions: dose 3.12 µg/ml
smiles,measurement,setting,value
O=C(C1=CN(CCc2ccccc2)C(NCCc2ccccc2)CC1)C(F)(F)F (centres undefined),MIC,[1],16 µg/mL
same,MIC,[2],12.5 µg/mL
same,RFU,[3],-0.2
same,RFU,[4],1.07
